Laboratory results: patent US5260050A, “Methods and compositions for magnetic resonance imaging comprising superparamagnetic ferromagnetically coupled chromium complexes” (priority 1990, dated 1993)

How the values were obtained:
[1] = system: tumor cells; assay: Histology of heparin carrier transport into tumor cells; settings: histologically (not shown)
[2] = system: tumor; settings: in vivo; cited from earlier work
[3] = system: BRO-strain human malignant melanomas; assay: MR imaging of human melanoma xenografts in nude mice; assay type: in vivo, human; Swiss nude mice; settings: i.v.
Method: The strong paramagnetic metal ion, gadolinium (Gd^+3), was chelated stoichiometrically to DTPA-Dextran 70 polymer, whose preparation is described in Example 1, paragraph 2 (improved formulation). Swiss nude mice were inoculated with BRO-strain human malignant melanomas, and these were allowed to grow to a 1-1.5 cm diameter. Moderately T1-weighted MR imaging (TR=500 msec, TE=40 msec) was performed in a standard Diasonics™ medical imager and a 30-cm RF head coil, before and after intravenous injection of equivalent doses of Gd-DTPA-Dextran-70 (0.03 mmol Gd/kg) or Gd-DTPA (0.1 mmol/kg) contrast agent. […] It will also be recognized that much lower doses of the stronger superparamagnetics (including doses below about 0.01 mmol/kg, versus 0.1 mmol/kg for Gd-DTPA) can be used to obtain effective MRI contrast enhancement; and that much faster, more heavily T1-weighted pulse sequences can be implemented in the presence of superparamagnetic-polymer conjugates or paired-ion complexes.

[4] = typically 15 MHz; cited from earlier work
[5] = cited from earlier work
[6] = in vivo; cited from earlier work
[7] = Permeability of tumor vascular walls; settings: transport by a polymeric carrier
[8] = system: VX2 carcinoma cells; assay: Histochemical platinum staining of perfused VX2 tumors; assay type: in vivo, rabbit; settings: intraarterial perfusion
Method: At 5 to 15 minutes postinjection, the animals were sacrificed, their lungs removed and fixed with intratracheal buffered formalin, tissue sections cut at 8 microns thickness, and the sections stained using a newly devised method for platinum which comprises a microwave-augmented iron-type stain (60° C.×2 minute×3 cycles) using a 1:1 mixture of 2% ferriferocyanide reagent and 4% HCl. […] To those skilled in the art, additional evidence for selective lung localization, was obtained by injecting intravenously, analogous (subembolizing) heparin-coated nanoparticles containing encapsulated amphotericin B, into identical mice, homogenizing the lungs, and documenting an 8-fold increment in drug levels over native amphotericin B (deoxycholate formulation, Fungizone; Squibb) recovered at 1 to 3 hours postinjection.
Additional documentation for maintenance of the cisplatin-carrier paired-ion complex in vivo was obtained as follows. […] Animals were sacrificed at 15 minutes, and the tumors and organs were homogenized extracted and analyzed by atomic absorption for tissue platinum concentrations, as shown in Table 1.
Additionally, histochemical platinum stains were performed on the tumor tissues, as described in Example 7.
Microinhomogeneities of tissue heating represent a major problem in hyperthermia treatment of tumors. […]

## heparin
[1]
  Intracellular transport in tumor cells: transported inside tumor cells

## CNC[C@H](O)[C@@H](O)[C@H](O)[C@H](O)CO.CNC[C@H](O)[C@@H](O)[C@H](O)[C@H](O)CO.O=C([O-])CN(CCN(CC(=O)[O-])CC(=O)O)CCN(CC(=O)[O-])CC(=O)O.[Gd+3] [Gd-DTPA, gadolinium-diethylenetriaminepentaacetate (Gd-DTPA) dimeglumine]
[2]
  Retention in tumor interstitium / tumor enhancement of comparator: 10 to 45 min
[3]; 0.1 mmol/kg, by one hour
  Fading of tumor enhancement: completely faded
[3]; 0.03 mmol Gd/kg (Gd-DTPA-dextran) or 0.1 mmol/kg (Gd-DTPA), TR=500, TE=40 msec
  Postcontrast interval at which optimal tumor enhancement began: 10 min
[4]
  Relaxivity at higher clinical radio frequencies: moderate decrease in relaxivity
[5]; bloodstream
  Blood clearance half-time: 20 min
[5]; by 30 minutes postcontrast
  Fading of tumor contrast enhancement: almost complete fading (tumor clearance)
[5]; in vivo
  Acute hepatic uptake interval: 5 to 45 min
  Postinjection contrast interval / imaging window: 10 to 45 min
  Retained fraction: less than 0.5%
[5]; intravenous
  Fraction sequestered in the kidneys: > 90%
[6]
  Biodistribution, share of total body water: ca. 35 % of total body water

## OCC(O)CO [glycerol]
[7]
  Permeability of tumor vascular walls: increases the permeability of the vascular walls in the tumorous region

## N.N.[Cl][Pt][Cl] [cisplatin, cis-dichlorodiamine platinum]
[8]
  Aggregated staining: absent
